Experimental data taken from patent publication US7812009B2, “Mastitis treatment” (Intervet International B.V., priority 2002, dated 2010).

Columns and labels:
[1] = system: experimental Streptococcus uberis mastitis; test: Rectal temperature in cows with experimental Streptococcus uberis mastitis; format: in vivo; conditions: cephapirin alone, intramammary, 4 infusions
Protocol: Eighteen lactating cows were intramammarily inoculated into the two left quarters with Streptococcus uberis (±1000 CFU/quarter). At 2 days after challenge, when all cows had clinical signs of mastitis (i.e. quarter foremilk modification and/or udder swelling), cows were allotted to three groups of six cows each, to produce groups with similar parity and milk production.
One group was treated with cephapirin alone (group 1), one group was treated with cephapirin and 20 mg prednisolone (group 2) and one group was non-treated (group 3). Cows included in group 1 and group 2 were treated in the 2 left inoculated quarters at day 2 after challenge. The first treatment was applied after a morning milking, and the following three infusions were performed immediately after the next 3 consecutive milkings. Cows of group 3 were left untreated. […] The rectal temperature was determined from day 9 before first treatment up to day 19 after first treatment.

[2] = system: leukocytes in blood; test: Number of leukocytes in blood from cows with endotoxin-induced mastitis; format: in vivo
Protocol: (§1) Fifteen cows were allotted to three groups of 5 cows each, according to milk production and parity. Cows were intramammary infused into 2 homo-lateral quarters with 100 μg Escherichia coli endotoxin (purified lipopolysacchide (LPS) obtained from E. coli 0111:B4) in 20 ml saline.
(§2) Cows were treated with the contents of one injector per endotoxin infused quarter when the first signs of clinical mastitis were evident, i.e. approximately 2 hours after endotoxin infusion. One group was treated with 300 mg of cephapirin, one group with 300 mg of cephapirin and 20 mg of prednisolone and one group was the non-treated control. The test preparations contained cephapirin and prednisolone in an oil carrier.
(§3) Blood samples were collected from the jugular vein at 24 hours before endotoxin infusion and 1.5, 8, 48 and 72 hours after endotoxin infusion.

[3] = system: blood PMN; test: Chemotaxis of blood PMN from cows with endotoxin-induced mastitis; format: in vivo
Protocol: as §1, §2, §3

[4] = system: cows with endotoxin-induced mastitis; test: Udder scores (local inflammation) in cows with E. coli endotoxin-induced mastitis; format: in vivo
Protocol: Twenty-four cows were allotted to four groups of 6 cows each, according to milk production and parity. All cows were intramammary infused into two homo-lateral quarters with 100 μg Escherichia coli endotoxin (purified lipopolysacchide (LPS) obtained from E. coli 0111:B4) in 20 ml saline.
The test preparations contained cephapirin and prednisolone in an oily carrier. Four different dose levels of prednisolone were tested: 0 mg (group 1), 10 mg (group 2), 20 mg (group 3) and 40 mg (group 4) per injector (8 g) together with 200 mg of cephapirin sodium.
Cows were treated with the contents of one injector per endotoxin infused quarter when the first signs of clinical mastitis were evident, i.e. 1.5 hours after endotoxin infusion. The next three treatments were infused immediately after consecutive afternoon or morning milkings (12 hours interval) during 2 days. In total four treatments were administered.
Udder scores: The condition and swelling of quarters were determined by palpation once daily after morning milking from day−7 to day−1 relative to endotoxin infusion and twice daily after milkings from day+1 to day+6 relative to endotoxin infusion. The day of endotoxin infusion, swelling of quarters was assessed by palpation approximately every half hour during ±12.5 hours after infusion. The scoring system provides scores 0 to 4. Higher values refer to increased and more severe signs of local inflammation.

[5] = system: pathogen identified on day 0 (clinical mastitis); test: Field study: bacteriological cure rate in clinical mastitis; format: in vivo, cows; conditions: higher dosage of prednisolone (20 mg) versus 10 mg, field conditions
Protocol: Lactating cows with clinical mastitis in a single quarter (571) were treated intramammarily either with a composition A (n=260) comprising 300 mg cefapirin sodium and 20 mg of prednisolone four times with a 12 h interval or with composition B (n=254) comprising 200 mg amoxicilline, 50 mg clavulanic acid and 10 mg of prednisolone three times with a 12 h interval. These administration schedules correspond to the recommended dosage of the products. The efficacy of the treatment was determined by the bacteriological cure rate (elimination of pathogen identified on day 0) at day 14, and day 21 and the clinical cure rate (affected quarter produces normal milk and no signs of clinical mastitis anymore) at days 14 and 21.
Bacteriological cure: A cow was considered as bacteriologically cured when, both on Days 14 and 21, the milk sample from the affected quarter was free from pathogen(s) present at day 0 (at admission prior to treatment). For clinical mastitis, treatment were considered as a failure for which cows were not yet clinically cured on the first post-treatment sampling (Day 14). […]
The parameters for efficacy are the outcome variables “bacteriological cure” (cure/non-cure) and “clinical cure” (cure/non-cure). The results in Table 3 and FIG. 6 are expressed as numbers and percentages of cows cured.

[6] = system: non-bacterial E. coli endotoxin induced clinical mastitis; conditions: intramammary infusion of 40 mg/unit dose; experimental conditions; cited from earlier work
[7] = 1.5 hours relative to endotoxin infusion (before first treatment)
[8] = 8 hours relative to endotoxin infusion, treatments at 2, 8, 24 and 36 hours
[9] = 24 hours relative to endotoxin infusion, treatments at 2, 8, 24 and 36 hours
[10] = 72 hours relative to endotoxin infusion, treatments at 2, 8, 24 and 36 hours
[11] = −24 hours relative to endotoxin infusion (before treatment)

| Structure (SMILES) | average rectal temperature after treatment [1] | Number of leukocytes in blood (mean) [2, 7] | Number of leukocytes in blood (mean) [2, 8] | Number of leukocytes in blood (mean) [2, 9] | Number of leukocytes in blood (mean) [2, 10] | Number of leukocytes in blood (mean) [2, 11] | Chemotactic PMN (mean) [3, 7] [mL⁻¹] | Chemotactic PMN (mean) [3, 8] [mL⁻¹] | Chemotactic PMN (mean) [3, 9] [mL⁻¹] | Chemotactic PMN (mean) [3, 10] [mL⁻¹] | Chemotactic PMN (mean) [3, 11] [mL⁻¹] | dose effect relation of prednisolone and sum of udder scores ([4]; 0, 10, 20, 40 mg prednisolone per injector with 200 mg cephapirin sodium, higher dosages gave lower sum of udder scores) | sum of udder scores compared to placebo quarters ([4]; 20 mg prednisolone per injector with 200 mg cephapirin sodium, intramammary, 4 treatments, from 8 hours post infusion up to evening milking of day 5) | sum of udder scores compared to placebo quarters (0 mg prednisolone) and quarters treated with 10 mg prednisolone ([4]; 40 mg prednisolone per injector with 200 mg cephapirin sodium, intramammary, 4 treatments, from 8 hours post infusion up to evening milking of day 5) | influence on the bacteriological cure rate [5] | effects on local and systemic inflammatory signs [6] |
| --- | --- | --- | --- | --- | --- | --- | --- | --- | --- | --- | --- | --- | --- | --- | --- | --- |
| CC(=O)OCC1=C(C(=O)O)N2C(=O)[C@@H](NC(=O)CSc3ccncc3)[C@H]2SC1 [Cephapirin] | decreased slowly | 8157 | 6329 | 12148 | 11317 | 8217 | 1.404e+06 | 142000 | 650000 | 135000 | 2.115e+06 | – | – | – | – | – |
| C[C@]12C=CC(=O)C=C1CC[C@@H]1[C@@H]2[C@@H](O)C[C@@]2(C)[C@H]1CC[C@]2(O)C(=O)CO [prednisolone, (11β)-11,17,21-trihydroxypregna-1,4-diene-3,20-dione] | – | – | – | – | – | – | – | – | – | – | – | clear dose effect relation | lower sum of udder scores | significantly lower | did not negatively influence | improved effects |
